Patent US20240408169A1 (priority 2023, published 2024)
Like-named read-outs stand apart in the source and are kept apart here. *1 amine or outer side, *2 acyl side, *3 side chain or, on linkers, in order; H or OH if unused. Where a SMILES comes first, the peptide text is derived from it. Bridges are numbered along the chain shown (N, C = ends). [ ]: non-standard residue; d: D form. The star is where a group is joined. X47 = C[C@@H]1CN(c2ccc(-c3ccc(Cl)cc3C[C@@H](C(=O)[*:2])N(C)[*:1])cc2)C[C@H](C)N1C; X50 = CN([C@@H](Cc1cc(Cl)ccc1-c1ccc(N2CCN(C3COC3)CC2)cc1)C(=O)[*:2])[*:1]; X58 = CC(C)C(=O)N1CC=C(c2ccc(Cl)cc2C[C@@H](C(=O)[*:2])N(C)[*:1])CC1; X100 = CC(=O)NC1CC=C(c2ccc(Cl)cc2C[C@@H](C(=O)[*:2])N(C)[*:1])CC1; X105 = CN([C@@H](Cc1cc(Cl)ccc1-c1cnn(C2CCOC2)c1)C(=O)[*:2])[*:1]; X86 = CN([C@@H](Cc1cc(Cl)ccc1-c1cnn(C2CCOCC2)c1)C(=O)[*:2])[*:1]; NMe3Pal(2-OiBu,5-Cl) = CN[C@@H](Cc1cc(Cl)cnc1OCC(C)C)C(=O)O; NMehhhLys(Me) = CN([C@@H](CCCCCCCN(C)[*:3])C(=O)[*:2])[*:1]; NMe(hhhLys) = CN([C@@H](CCCCCCCN[*:3])C(=O)[*:2])[*:1]; X96 = CN([C@@H](Cc1cc(Cl)cc2ccn(C)c12)C(=O)[*:2])[*:1]; X28 = CN([C@@H](Cc1cc(Cl)cnc1OC1CCC1)C(=O)[*:2])[*:1]; Cyclobutanecarbonyl(1-CF3) = O=C(C1(C(F)(F)F)CCC1)*; X94 = CN([C@@H](Cc1cc(F)ccc1C1CC1)C(=O)[*:2])[*:1]; cBuCO(3,3-F2-1-CF3) = O=C(C1(C(F)(F)F)CC(F)(F)C1)*; Pro(trans-4-F) = O=C(O)[C@@H]1C[C@@H](F)CN1; Gly(cPr) = N[C@H](C(=O)O)C1CC1

What was measured:
[1] = system: WI-38 cells; test: MTT proliferation assay, WI-38; assay type: cell-based; conditions: 3 days compound exposure, 1:3 serial dilution starting at 10 μM;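 note: Eight- or ten-point dilution series, with exposure length chosen to span about three to four cell doublings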
[2] = molecular target: T1, CyclinE1/CDK2 (Homo sapiens, UniProt P24864); test: Fluorescence Polarization (FP) competitive binding assay, Cyclin E1/Cdk2;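 note: readings taken after two-hour equilibration at room temperature in HEPES buffer with NaCl, DTT, NP-40 and BSA, IC50 fitted from eight-concentration serial dilution series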
T1 construct: purchased Eurofins, discovery 14-475

[3] = molecular target: T2, CyclinB1/CDK1 (Homo sapiens, UniProt P14635); test: Fluorescence Polarization (FP) competitive binding assay, Cyclin B1/Cdk1;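 note: fluorescence polarization read after equilibration at room temperature, with IC50 taken from serially diluted dose-response curves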
T2 construct: purchased Eurofins, discovery 14-450

[4] = molecular target: T3, CyclinA2/CDK2 (Homo sapiens, UniProt P20248); test: Fluorescence Polarization (FP) competitive binding assay, Cyclin A2/Cdk2;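 note: plates equilibrated two hours at room temperature before polarization reading, IC50 fitted from eight-concentration compound titration curves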
T3 construct: purchased CRELUX Protein Services

[5] = system: OVCAR3 cells; test: MTT proliferation assay, OVCAR3; assay type: cell-based; conditions: 5 days compound exposure, 1:3 serial dilution starting at 10 μM;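 note: compound given as an 8- or 10-point series, one day after plating, with exposure covering roughly 3-4 cell doublings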
[6] = system: NCI-H1048 cells; test: MTT proliferation assay, NCI-H1048; assay type: cell-based; conditions: 5 days compound exposure, 1:3 serial dilution starting at 10 μM;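 note: Dose-response in 96-well plates over 8 or 10 concentration points, with exposure spanning 3-4 cell doublings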
[7] = 10 nM Cyclin E1/Cdk2, 2 nM FAM probe, average of 2-3 independent experiments, read-out: Cyclin E FP IC50
[8] = 10 nM Cyclin B1/Cdk1, 2 nM FAM probe; average of 2-3 independent experiments; read-out: Cyclin B FP IC50
[9] = 8 nM Cyclin A2/Cdk2, 2 nM FAM probe, average of 2-3 independent experiments, read-out: Cyclin A FP IC50

CC(C)COc1ncc(Cl)cc1C[C@H]1C(=O)N(C)CCCCCCC[C@H](N(C)C(=O)[C@@H](NC(=O)[C@@H]2C[C@@H](F)CN2C(=O)C2(C(F)(F)F)CCC2)C2CC2)C(=O)N[C@@H](CC(C)C)C(=O)N1C [Example 230] ({Cyclobutanecarbonyl(1-CF3)}-[Pro(trans-4-F)][Gly(cPr)][NMehhhLys(Me)]L[NMe3Pal(2-OiBu,5-Cl)]; lactam 3-C)
GI50 [1]: 5050 nM
IC50 [2]: 140 nM
IC50 ([3]; read-out: Cyclin B FP IC50; 10 nM Cyclin B1/Cdk1, 2 nM FAM probe; average of 2-3 independent experiments): 20 nM
IC50 [4]: 30 nM
GI50 [5]: 90 nM
GI50 [6]: 40 nM

CC(C)C[C@@H]1NC(=O)[C@@H](N(C)C(=O)[C@@H](NC(=O)[C@@H]2C[C@@H](F)CN2C(=O)C2(C(F)(F)F)CC(F)(F)C2)C2CC2)CCCCCCCN(C)C(=O)[C@H](Cc2cc(F)ccc2C2CC2)N(C)C1=O [Example 121] ({cBuCO(3,3-F2-1-CF3)}-[Pro(trans-4-F)][Gly(cPr)][NMehhhLys(Me)]L[X94]; lactam 3-C)
GI50 [1]: 7610 nM
IC50 [2, 7]: 130 nM
IC50 [3, 8]: 20 nM
IC50 [4, 9]: 50 nM
GI50 [5]: 70 nM
GI50 [6]: 40 nM

CC(C)C[C@@H]1NC(=O)[C@@H](N(C)C(=O)[C@@H](NC(=O)[C@@H]2C[C@@H](F)CN2C(=O)C2(C(F)(F)F)CC(F)(F)C2)C2CC2)CCCCCCCN(C)C(=O)[C@H](Cc2cc(Cl)ccc2-c2ccc(N3C[C@@H](C)N(C)[C@@H](C)C3)cc2)N(C)C1=O [Example 384] ({cBuCO(3,3-F2-1-CF3)}-[Pro(trans-4-F)][Gly(cPr)][NMehhhLys(Me)]L[X47]; lactam 3-C)
GI50 [1]: 2210 nM
IC50 [2, 7]: 590 nM
IC50 [3, 8]: 20 nM
IC50 [4, 9]: 20 nM
GI50 [5]: 10 nM
GI50 [6]: 10 nM

CC(C)C[C@@H]1NC(=O)[C@@H](N(C)C(=O)[C@@H](NC(=O)[C@@H]2C[C@@H](F)CN2C(=O)C2(C(F)(F)F)CC(F)(F)C2)C2CC2)CCCCCCCN(C)C(=O)[C@H](Cc2cc(Cl)ccc2-c2cnn(C3CCOC3)c2)N(C)C1=O (stereo partly drawn) [Example 113] ({cBuCO(3,3-F2-1-CF3)}-[Pro(trans-4-F)][Gly(cPr)][NMehhhLys(Me)]L[X105]; lactam 3-C)
GI50 [1]: 7240 nM
IC50 [2, 7]: 310 nM
IC50 [3, 8]: 20 nM
IC50 [4, 9]: 20 nM
GI50 [5]: 10 nM
GI50 [6]: 10 nM

CC(C)C[C@@H]1NC(=O)[C@@H](N(C)C(=O)[C@@H](NC(=O)[C@@H]2C[C@@H](F)CN2C(=O)C2(C(F)(F)F)CCC2)C2CC2)CC=CCCCCNC(=O)[C@H](Cc2cc(Cl)cnc2OC(C)C)N(C)C1=O (single isomer, unassigned) [Example 136-P2]
GI50 [1]: 6670 nM
IC50 [2, 7]: 120 nM
IC50 [3, 8]: 20 nM
IC50 [4, 9]: 80 nM
GI50 [5]: 640 nM
GI50 [6]: 450 nM

CC(C)C[C@@H]1NC(=O)[C@@H](N(C)C(=O)[C@@H](NC(=O)[C@@H]2C[C@@H](F)CN2C(=O)C2(C(F)(F)F)CC(F)(F)C2)C2CC2)CCCCCCCNC(=O)[C@H](Cc2cc(Cl)ccc2C2=CCN(C(=O)C(C)C)CC2)N(C)C1=O [Example 98] ({cBuCO(3,3-F2-1-CF3)}-[Pro(trans-4-F)][Gly(cPr)][NMe(hhhLys)]L[X58]; lactam 3-C)
GI50 [1]: 16400 nM
IC50 [2, 7]: 1100 nM
IC50 [3, 8]: 20 nM
IC50 [4, 9]: 20 nM
GI50 [5]: 20 nM
GI50 [6]: 20 nM

CC(C)C[C@@H]1NC(=O)[C@@H](N(C)C(=O)[C@@H](NC(=O)[C@@H]2C[C@@H](F)CN2C(=O)C2(C(F)(F)F)CCC2)C2CC2)CC=CCCCCNC(=O)[C@H](Cc2cc(Cl)ccc2-c2cnn(C3COC3)c2)N(C)C1=O [Example 32]
GI50 [1]: 11800 nM
IC50 [2, 7]: 590 nM
IC50 [3, 8]: 20 nM
IC50 [4, 9]: 50 nM
GI50 [5]: 250 nM
GI50 [6]: 140 nM

CC(C)C[C@@H]1NC(=O)[C@@H](N(C)C(=O)[C@@H](NC(=O)[C@@H]2C[C@@H](F)CN2C(=O)C2(C(F)(F)F)CC(F)(F)C2)C2CC2)CCCCCCCN(C)C(=O)[C@H](Cc2cc(Cl)ccc2-c2cnn(C3CCOCC3)c2)N(C)C1=O [Example 114] ({cBuCO(3,3-F2-1-CF3)}-[Pro(trans-4-F)][Gly(cPr)][NMehhhLys(Me)]L[X86]; lactam 3-C)
GI50 [1]: 7190 nM
IC50 [2, 7]: 400 nM
IC50 [3, 8]: 20 nM
IC50 [4, 9]: 20 nM
GI50 [5]: 10 nM
GI50 [6]: 10 nM

CC(C)C[C@@H]1NC(=O)[C@@H](N(C)C(=O)[C@@H](NC(=O)[C@@H]2C[C@@H](F)CN2C(=O)C2(C(F)(F)F)CC(F)(F)C2)C2CC2)CCCCCCCN(C)C(=O)[C@H](Cc2cc(Cl)cc3ccn(C)c23)N(C)C1=O [Example 392, (2S,4R)—N—((S)-2-(((3S,6S,9S)-3-((5-chloro-1-methyl-1H-indol-7-yl)methyl)-6-isobutyl-1,4-dimethyl-2,5,8-trioxo-1,4,7-triazacyclohexadecan-9-yl)(methyl)amino)-1-cyclopropyl-2-oxoethyl)-1-(3,3-difluoro-1-(trifluoromethyl)cyclobutane-1-carbonyl)-4-fluoropyrrolidine-2-carboxamide] ({cBuCO(3,3-F2-1-CF3)}-[Pro(trans-4-F)][Gly(cPr)][NMehhhLys(Me)]L[X96]; lactam 3-C)
GI50 [1]: 14700 nM
IC50 [2, 7]: 830 nM
IC50 [3, 8]: 20 nM
IC50 [4, 9]: 230 nM
GI50 [5]: 170 nM
GI50 [6]: 170 nM

CC(=O)NC1CC=C(c2ccc(Cl)cc2C[C@H]2C(=O)N(C)CCCCCCC[C@H](N(C)C(=O)[C@@H](NC(=O)[C@@H]3C[C@@H](F)CN3C(=O)C3(C(F)(F)F)CC(F)(F)C3)C3CC3)C(=O)N[C@@H](CC(C)C)C(=O)N2C)CC1 (stereo partly drawn) [Example 60] ({cBuCO(3,3-F2-1-CF3)}-[Pro(trans-4-F)][Gly(cPr)][NMehhhLys(Me)]L[X100]; lactam 3-C)
GI50 [1]: 5720 nM
IC50 [2, 7]: 740 nM
IC50 [3, 8]: 20 nM
IC50 [4, 9]: 20 nM
GI50 [5]: 10 nM
GI50 [6]: 10 nM

CC(C)C[C@@H]1NC(=O)[C@@H](N(C)C(=O)[C@@H](NC(=O)[C@@H]2C[C@@H](F)CN2C(=O)C2(C(F)(F)F)CC(F)(F)C2)C2CC2)CCCCCCCNC(=O)[C@H](Cc2cc(Cl)cnc2OC2CCC2)N(C)C1=O [Example 142] ({cBuCO(3,3-F2-1-CF3)}-[Pro(trans-4-F)][Gly(cPr)][NMe(hhhLys)]L[X28]; lactam 3-C)
GI50 [1]: 10200 nM
IC50 [2, 7]: 150 nM
IC50 [3, 8]: 20 nM
IC50 [4, 9]: 40 nM
GI50 [5]: 190 nM
GI50 [6]: 110 nM

CC(C)C[C@@H]1NC(=O)[C@@H](N(C)C(=O)[C@@H](NC(=O)[C@@H]2C[C@@H](F)CN2C(=O)C2(C(F)(F)F)CC(F)(F)C2)C2CC2)CCCCCCCN(C)C(=O)[C@H](Cc2cc(Cl)ccc2-c2ccc(N3CCN(C4COC4)CC3)cc2)N(C)C1=O [Example 346] ({cBuCO(3,3-F2-1-CF3)}-[Pro(trans-4-F)][Gly(cPr)][NMehhhLys(Me)]L[X50]; lactam 3-C)
GI50 [1]: 3680 nM
IC50 [2, 7]: 360 nM
IC50 [3, 8]: 20 nM
IC50 [4, 9]: 20 nM
GI50 [5]: 10 nM
GI50 [6]: 10 nM

CC(C)C[C@@H]1NC(=O)[C@@H](N(C)C(=O)[C@@H](NC(=O)[C@@H]2C[C@@H](F)CN2C(=O)C2(C(F)(F)F)CC(F)(F)C2)C2CC2)CC=CCCCCNC(=O)[C@H](Cc2cc(Cl)ccc2C2=CCN(C(=O)C(C)C)CC2)N(C)C1=O [Example 90]
GI50 [1]: 4130 nM
IC50 [2, 7]: 3700 nM
IC50 [3, 8]: 20 nM
IC50 [4, 9]: 90 nM
GI50 [5]: 230 nM
GI50 [6]: 260 nM
